# Test results: the supplement of paper PMC11208160
# Assay: recombinant UMI read abundance after kanamycin selection (control-corrected) (log10(CPM+1)); higher = more efficient recombination; extreme values may be limits of the assay; sequences stand for … in AGTGCAGAGAAAATCGGCCAGTTTTCTCTGCCTGCAGTCCGCATGCCGTGGGACCCCTTGGGTTCTAACCTGTTGCCTAGATTTATGCAGCGGACTGCCTTTCTCCCAAAGTGATAAACCGG…AGGTTGGTTTCACT; site = the 11-nt donor
# Outline: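 Values, expressed as log10(CPM+1), derive from recombinant UMI counts converted to CPM, averaged across replicates and scaled by control-derived factors. Plating was with IPTG (0.07 mM) plus kanamycin or unselected, two replicates each. The screen pooled donor and donor-binding-loop pairs for the IS621 bridge recombinase in Escherichia coli.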
# 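Also: IS621 bridge recombinase in Escherichia coli cells against a fixed T5 target plasmid.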
row,Sequence,recombinant UMI read abundance (log10)
1,TGCTAGGCATGGACCGGTTTTCCCGGTAATCCGTATTTGGT (site TGCTAGGCTAG),0.0108
2,TGCTAGGCATGGACCGGTTTTCCCGGTAATCCGTATTTGGT (site TGCTAGGCTAT),0.0134
3,TGCTAGGCATGGACCGGTTTTCCCGGTAATCCGTATTTGGT (site TGCTAGGCTCC),0.0152
4,TGCTAGGCATGGACCGGTTTTCCCGGTAATCCGTATTTGGT (site TGCTAGGCTGC),0.0103
5,TGCTAGGCATGGACCGGTTTTCCCGGTAATCCGTATTTGGT (site TGCTAGGCTTC),0.0129
6,TGCTAGGCATGGACCGGTTTTCCCGGTAATCCGTATTTGGT (site TGCTAGTCTAC),0.00544
7,TGCTAGGCATGGACCGGTTTTCCCGGTAATCCGTATTTGGT (site TGCTATGCTAC),0.00951
8,TGCTAGGCATGGACCGGTTTTCCCGGTAATCCGTATTTGGT (site TGCTCGGCTAC),0.0253
9,TGCTAGGCATGGACCGGTTTTCCCGGTAATCCGTATTTGGT (site TGCTGGGCTAC),0.0136
10,TGCTAGGCATGGACCGGTTTTCCCGGTAATCCGTATTTGGT (site TGCTTGGCTAC),0.0132
11,TGCTAGGCATGGACCGGTTTTCCCGGTAATCCGTATTTGGT (site TGGTAGGCTAC),0.00942
12,TGCTAGGCATGGACCGGTTTTCCCGGTAATCCGTATTTGGT (site TGTTAGGCTAC),0.026
13,TGCTAGGCATGGACCGGTTTTCCCGGTAATCCGTATTTGGT (site TTCTAGGCTAC),0.0121
14,TGCTAGTCATGGACCGGTTTTCCCGGTAATCCGTATTTGGT (site TGCTAGACTAC),0.00505
15,TGCTAGTCATGGACCGGTTTTCCCGGTAATCCGTATTTGGT (site TGCTAGCCTAC),0.0102
16,TGCTAGTCATGGACCGGTTTTCCCGGTAATCCGTATTTGGT (site TGCTAGGCTAC),0.00963

row,Sequence,recombinant UMI read abundance (log10)
1,TGCTAGTCATGGACCGGTTTTCCCGGTAATCCGTATTTGGT (site TGCTAGTCTAC),1.07
2,TGCTCAGCATGGACCGGTTTTCCCGGTAATCCGTATTTGGG (site AGCTCAGCTCC),0.0267
3,TGCTCAGCATGGACCGGTTTTCCCGGTAATCCGTATTTGGG (site CGCTCAGCTCC),0.0151
4,TGCTCAGCATGGACCGGTTTTCCCGGTAATCCGTATTTGGG (site GGCTCAGCTCC),0.0391
5,TGCTCAGCATGGACCGGTTTTCCCGGTAATCCGTATTTGGG (site TGCTCAGCTCC),0.00921
6,TGCTCGGCATGGACCGGTTTTCCCGGTAATCCGTATTTGAT (site TGCTCGGCTAT),0.54
7,TGCTCGGCATGGACCGGTTTTCCCGGTAATCCGTATTTGGT (site TGCTAGGCTAC),0.00732
8,TGCTCGGCATGGACCGGTTTTCCCGGTAATCCGTATTTGGT (site TGCTCGGCTAC),0.0236
9,TGCTCGGCATGGACCGGTTTTCCCGGTAATCCGTATTTGGT (site TGCTGGGCTAC),0.00677
10,TGCTCGGCATGGACCGGTTTTCCCGGTAATCCGTATTTGGT (site TGCTTGGCTAC),0.00594
11,TGCTGAGCATGGACCGGTTTTCCCGGTAATCCGTATTTGAT (site TGCTGAGCTAT),1.36
12,TGCTTCGCATGGACCGGTTTTCCCGGTAATCCGTATTTGTC (site TGCTTCGCTGA),0.542
13,TGGAATACATGGACCGGTTTTCCCGGTAATCCGTATTTGCA (site TAGAATACTTG),0.91
14,TGGAATACATGGACCGGTTTTCCCGGTAATCCGTATTTGCA (site TCGAATACTTG),0.55
15,TGGAATACATGGACCGGTTTTCCCGGTAATCCGTATTTGCA (site TGGAATACTTG),1.86
16,TGGAATACATGGACCGGTTTTCCCGGTAATCCGTATTTGCA (site TTGAATACTTG),0.00597
